Measured values: patent EP0055702B1, “Antithrombotic treatment” (priority 1980, dated 1982)
Read-outs that look alike come from different tables or passages of the source.

Columns and labels:
[1] = tested on: human, rabbit and rat plasma; assay: PT (prothrombin time) in plasma in vitro, Example 3; type: biochemical
Description: (§1) Sodium, potassium and ammonium bisulphites are found to prolong PT and PTT in a dose-related fashion.
(§2) The evaluation procedure used is that described in "Human Blood Coagulation, Haemostasis and Thrombosis", edited by Rosemary Biggs, published by Blackwell Scientific Publications, Oxford, England (2nd Edition), pages 670-705, 1976.

[2] = tested on: human, rabbit and rat plasma; assay: PTT (partial thromboplastin time) in plasma in vitro, Example 3; type: biochemical; conditions: for PTT (seconds) Exp. 1 A / PTT (seconds) Exp. 2 A: active agent 0.5/ml, control
Description: as §1, §2

Prothrombin = molecular target: T1, Prothrombin (Homo sapiens, UniProt P00734); assay: Prothrombin (Factor II) assay, Example 4; type: biochemical; conditions: for Prothrombin: Control 87
T1 construct: from tissue; host or cells: human plasma
Description: (§3) The evaluation procedure used is that described in "Human Blood Coagulation, Haemostasis and Thrombosis", edited by Rosemary Biggs, published by Blackwell Scientific Publications, Oxford, England (2nd Edition), pages 670-705, 1976. […]

Factor V = molecular target: T2, Factor V (Homo sapiens, UniProt P12259); assay: Factor V assay, Example 4; type: biochemical; conditions: Control 75
T2 construct: from tissue; host or cells: human plasma
T2 sequence (P12259 29-2224): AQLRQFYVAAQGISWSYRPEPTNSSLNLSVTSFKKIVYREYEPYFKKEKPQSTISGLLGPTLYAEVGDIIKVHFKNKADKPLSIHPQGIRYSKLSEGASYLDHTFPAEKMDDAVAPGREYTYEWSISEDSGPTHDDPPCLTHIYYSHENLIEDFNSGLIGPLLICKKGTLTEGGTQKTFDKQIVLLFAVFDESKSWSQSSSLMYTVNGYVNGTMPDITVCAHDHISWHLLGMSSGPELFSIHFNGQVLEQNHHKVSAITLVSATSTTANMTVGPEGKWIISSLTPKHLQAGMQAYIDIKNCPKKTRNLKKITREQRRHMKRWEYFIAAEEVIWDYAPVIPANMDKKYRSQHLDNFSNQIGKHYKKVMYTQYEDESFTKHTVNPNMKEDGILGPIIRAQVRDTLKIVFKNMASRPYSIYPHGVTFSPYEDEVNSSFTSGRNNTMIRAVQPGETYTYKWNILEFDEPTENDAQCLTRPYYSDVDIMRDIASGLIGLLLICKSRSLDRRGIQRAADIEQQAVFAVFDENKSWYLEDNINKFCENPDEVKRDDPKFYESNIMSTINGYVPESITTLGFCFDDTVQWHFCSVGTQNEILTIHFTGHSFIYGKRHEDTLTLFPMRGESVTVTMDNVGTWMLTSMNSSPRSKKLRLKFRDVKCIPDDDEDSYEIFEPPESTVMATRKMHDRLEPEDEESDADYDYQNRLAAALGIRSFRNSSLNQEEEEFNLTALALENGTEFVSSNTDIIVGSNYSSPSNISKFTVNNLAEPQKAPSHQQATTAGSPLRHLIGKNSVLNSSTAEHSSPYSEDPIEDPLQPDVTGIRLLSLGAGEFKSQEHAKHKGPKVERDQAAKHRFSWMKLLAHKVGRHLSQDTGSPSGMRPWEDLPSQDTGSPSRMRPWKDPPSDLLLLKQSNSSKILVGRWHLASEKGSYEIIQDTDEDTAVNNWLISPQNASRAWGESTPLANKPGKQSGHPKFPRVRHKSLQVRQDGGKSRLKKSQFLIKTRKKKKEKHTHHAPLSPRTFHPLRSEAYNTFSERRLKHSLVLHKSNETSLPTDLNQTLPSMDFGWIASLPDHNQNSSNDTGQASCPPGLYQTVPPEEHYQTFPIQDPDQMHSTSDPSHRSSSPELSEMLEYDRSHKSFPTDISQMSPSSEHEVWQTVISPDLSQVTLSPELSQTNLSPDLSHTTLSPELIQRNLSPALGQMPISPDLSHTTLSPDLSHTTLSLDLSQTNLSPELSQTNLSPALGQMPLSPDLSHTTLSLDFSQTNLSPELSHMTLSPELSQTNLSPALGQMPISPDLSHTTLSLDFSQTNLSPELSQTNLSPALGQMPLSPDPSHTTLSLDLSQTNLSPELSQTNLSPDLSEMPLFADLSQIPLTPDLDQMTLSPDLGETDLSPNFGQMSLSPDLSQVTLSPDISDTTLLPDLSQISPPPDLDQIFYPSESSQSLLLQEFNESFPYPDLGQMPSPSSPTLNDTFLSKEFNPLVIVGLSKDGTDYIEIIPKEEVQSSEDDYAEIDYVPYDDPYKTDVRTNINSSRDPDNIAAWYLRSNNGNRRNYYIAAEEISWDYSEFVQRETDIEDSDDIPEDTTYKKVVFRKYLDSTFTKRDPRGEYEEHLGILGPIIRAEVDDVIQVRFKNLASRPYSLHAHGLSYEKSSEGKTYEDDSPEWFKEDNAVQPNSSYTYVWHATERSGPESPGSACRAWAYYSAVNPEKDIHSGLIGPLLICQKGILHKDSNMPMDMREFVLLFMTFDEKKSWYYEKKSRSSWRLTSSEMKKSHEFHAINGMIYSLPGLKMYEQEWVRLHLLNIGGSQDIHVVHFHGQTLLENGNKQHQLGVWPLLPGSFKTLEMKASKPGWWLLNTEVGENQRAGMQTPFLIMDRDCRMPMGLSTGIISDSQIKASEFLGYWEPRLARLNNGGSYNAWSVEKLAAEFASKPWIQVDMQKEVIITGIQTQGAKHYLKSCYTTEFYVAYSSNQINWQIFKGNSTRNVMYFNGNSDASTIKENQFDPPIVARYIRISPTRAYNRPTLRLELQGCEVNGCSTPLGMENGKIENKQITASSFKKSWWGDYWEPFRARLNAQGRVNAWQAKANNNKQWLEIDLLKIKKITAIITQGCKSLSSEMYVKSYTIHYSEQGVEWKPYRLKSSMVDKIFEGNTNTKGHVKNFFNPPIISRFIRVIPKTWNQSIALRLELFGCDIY
Description: as §3

F VIII = molecular target: T3, F VIII (Homo sapiens, UniProt P00451); assay: Factor VIII assay, Example 4; type: biochemical; conditions: for F VIII: Control 57
T3 construct: from tissue; host or cells: human plasma
Description: as §3

F IX = molecular target: T4, F IX (Homo sapiens, UniProt P00740); assay: Factor IX assay, Example 4; type: biochemical; design: F IX: unit not given beside the values; conditions: for V IX: solution D; for V IX / F IX: Control 66
T4 construct: from tissue; host or cells: human plasma
T4 sequence (P00740 47-461): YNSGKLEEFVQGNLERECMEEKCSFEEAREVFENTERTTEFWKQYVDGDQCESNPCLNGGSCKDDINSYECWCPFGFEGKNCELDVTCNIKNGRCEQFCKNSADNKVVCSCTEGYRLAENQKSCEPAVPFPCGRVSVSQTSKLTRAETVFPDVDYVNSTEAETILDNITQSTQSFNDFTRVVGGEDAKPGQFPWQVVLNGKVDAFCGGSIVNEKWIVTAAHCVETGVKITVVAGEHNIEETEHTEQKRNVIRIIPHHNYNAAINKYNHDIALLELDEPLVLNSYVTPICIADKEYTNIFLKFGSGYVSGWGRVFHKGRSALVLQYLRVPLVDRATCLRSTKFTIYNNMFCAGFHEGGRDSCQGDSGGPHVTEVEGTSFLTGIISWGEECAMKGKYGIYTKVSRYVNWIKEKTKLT
Description: as §3

F X = molecular target: T5, F X (Homo sapiens, UniProt P00742); assay: Factor X assay, Example 4; type: biochemical; conditions: for F X: Control 78
T5 construct: from tissue; host or cells: human plasma
T5 sequence (P00742 41-488): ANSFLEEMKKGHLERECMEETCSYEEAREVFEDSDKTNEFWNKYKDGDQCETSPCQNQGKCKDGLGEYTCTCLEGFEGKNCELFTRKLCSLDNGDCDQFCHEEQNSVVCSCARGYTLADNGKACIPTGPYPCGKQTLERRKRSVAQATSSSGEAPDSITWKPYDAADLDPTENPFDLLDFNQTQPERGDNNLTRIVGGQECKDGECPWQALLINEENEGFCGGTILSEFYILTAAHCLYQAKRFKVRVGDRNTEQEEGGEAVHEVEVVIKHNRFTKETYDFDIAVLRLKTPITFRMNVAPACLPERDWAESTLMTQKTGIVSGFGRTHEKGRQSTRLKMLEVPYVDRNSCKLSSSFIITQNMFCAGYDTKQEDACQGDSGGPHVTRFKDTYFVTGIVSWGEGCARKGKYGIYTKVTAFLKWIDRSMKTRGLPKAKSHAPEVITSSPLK
Description: as §3

human plasma = assay: Blood coagulation factors by standard procedures (Biggs), human plasma; type: biochemical; conditions: 5 mg/ml
Method: The effect of U.S.P. grade sodium bisulphite on blood coagulation factors was evaluated by standard procedures (Biggs) and the results are shown in Table III below.
The effect is directly proportional to dose.

[3] = tested on: thrombus formation in the jugular vein; assay: Anti-venous thrombotic effect, 125I fibrinogen technique in rabbits; type: in vivo
Description: Also, a thrombosis is detectable, for example, from a patient's conditions symptomatically perceivable by a skilled medical practitioner and well known to the art of medicine. Objectively, various methods are available, including venography, impedance plethysmography, doppler ultrasound and the 1251-fibrinogen test (see, for example, the articles by Kakkar, "Archives of Surgery", 104, page 152 (1972) and by Kelton, J.G. et al, Journal of Clinical Investigation, Vol. 62, pgs. 892-895, (1978)).
The anti-venous thrombotic effect of sodium bisulphite was evaluated in rabbits by using the 1^125 fibrinogen technique described above.
Each rabbit was continuously infused with aqueous sodium bisulphite solution at the rate of 460 mg/kg per hr. (2.97 grams) (animal body weight 2.3 kg).
After 5 hours, the animal was sacrificed and the radioactive fibrinogen accumulated in the damaged jugular vein was determined. The radioactivity in the contra-lateral (undamaged) jugular vein was also determined, to serve as a control. Concurrently, another rabbit was subjected to the same procedure, but was given only a standard sodium chloride solution, as a control.

[4] = PT of coded and various agents, Example 6; type: biochemical
Description: (§4) A variety of agents were coded and evaluated under a code designation. Among these compounds, thiouracil, mercaptosuccinic acid, thiosemicarbazide, phenothiazine and sodium thiosulphate were included, so as to compare sodium bisulphite with certain compounds mentioned in USP 4,148,855.
(§5) After determination of PT and PTT values, the coded compounds were decoded.
(§6) The results are shown in Table V, where mean values of 5 replications in each case are reported. […] This procedure was repeated with some additional compounds on two different days using a different control on each day.

[5] = PTT of coded and various agents, Example 6; type: biochemical; conditions: Table V, coded agents 0.5 mg/ml; Control 43.38
Description: as §4, §5, §6

[6] = tested on: platelet aggregation induced by adenosine diphosphate (ADP); conditions: rabbit blood, Kikugawa, cited from earlier work
[7] = 0.5 mg/ml, human, rabbit and rat plasma in vitro, dose-related
[8] = Test sequence A, active agent 0.5/ml, control
[9] = Sodium bisulphite 0.01 mg/ml, solution D
[10] = Sodium bisulphite 0.05 mg/ml, solution D
[11] = Sodium bisulphite 0.1 mg/ml, solution D
[12] = Sodium bisulphite 0.5 mg/ml, solution D
[13] = Sodium bisulphite 1.0 mg/ml, solution D
[14] = Sodium bisulphite 5.0 mg/ml, solution D
[15] = chemical grade sodium bisulphite 0.01 mg/ml
[16] = chemical grade sodium bisulphite 0.05 mg/ml
[17] = chemical grade sodium bisulphite 0.1 mg/ml
[18] = chemical grade sodium bisulphite 0.5 mg/ml
[19] = chemical grade sodium bisulphite 1.0 mg/ml
[20] = chemical grade sodium bisulphite 5.0 mg/ml

Question: With Sodium bisulphite as the substance, how does the “prolongation of PT” value [1, 7] read?
Answer: significantly prolong

Question: What about the “PT (seconds) Exp. 1 A” value [1, 8] of the same substance?
Answer: 22.1 s

Question: And the “PT (seconds) Exp.2 A” value [1, 8]?
Answer: 23.2 s

Question: And the “PT (seconds) Exp. 1 A” value ([1]; Test sequence B, active agent 0.5/ml, control)?
Answer: 25.5 s

Question: What about the “prolongation of PTT” value [2, 7] of the same substance?
Answer: significantly prolong

Question: And the “PTT (seconds) Exp. 1 A” value ([2]; Test sequence A)?
Answer: 128.2 s

Question: What about the “PTT (seconds) Exp. 2 A” value ([2]; Test sequence A) of the same substance?
Answer: 121.9 s

Question: And the “PTT (seconds) Exp. 1 A” value ([2]; Test sequence B)?
Answer: 128.2 s

Question: And the “PTT (seconds) Exp. 2 A” value ([2]; Test sequence B)?
Answer: 162.6 s

Question: What about the Prothrombin (Prothrombin; [9]) of the same substance?
Answer: 79%

Question: What about the Prothrombin (Prothrombin; [10]) of the same substance?
Answer: 80%

Question: And the Prothrombin (Prothrombin; [11])?
Answer: 72%

Question: What about the Prothrombin (Prothrombin; [12]) of the same substance?
Answer: 40%

Question: What about the Prothrombin (Prothrombin; [13]) of the same substance?
Answer: 26%

Question: What about the Prothrombin (Prothrombin; [14]) of the same substance?
Answer: 5%

Question: And the Prothrombin (Prothrombin; [15])?
Answer: 88%

Question: And the Prothrombin (Prothrombin; [16])?
Answer: 82%

Question: And the Prothrombin (Prothrombin; [17])?
Answer: 75%

Question: And the Prothrombin (Prothrombin; [18])?
Answer: 34%

Question: And the Prothrombin (Prothrombin; [19])?
Answer: 25%

Question: What about the Prothrombin (Prothrombin; [20]) of the same substance?
Answer: 8%

Question: What about the “effect on Factor II” value (Prothrombin; human plasma) of the same substance?
Answer: mildly affected

Question: And the “Factor V” value (Factor V; [9])?
Answer: 74%

Question: And the “Factor V” value (Factor V; [10])?
Answer: 72%

Question: What about the “Factor V” value (Factor V; [11]) of the same substance?
Answer: 80%

Question: And the “Factor V” value (Factor V; [12])?
Answer: 70%

Question: And the “Factor V” value (Factor V; [13])?
Answer: 60%

Question: And the “Factor V” value (Factor V; [14])?
Answer: 54%

Question: What about the “Factor V” value (Factor V; [15]) of the same substance?
Answer: 70

Question: And the “Factor V” value (Factor V; [16])?
Answer: 68

Question: And the “Factor V” value (Factor V; [17])?
Answer: 68

Question: What about the “Factor V” value (Factor V; [18]) of the same substance?
Answer: 64

Question: What about the “Factor V” value (Factor V; [19]) of the same substance?
Answer: 66

Question: What about the “Factor V” value (Factor V; [20]) of the same substance?
Answer: 60

Question: And the “F VIII” value (F VIII; [9])?
Answer: 62%

Question: What about the “F VIII” value (F VIII; [10]) of the same substance?
Answer: 68%

Question: And the “F VIII” value (F VIII; [11])?
Answer: 55%

Question: What about the “F VIII” value (F VIII; [12]) of the same substance?
Answer: 58%

Question: And the “F VIII” value (F VIII; [13])?
Answer: 29%

Question: What about the “F VIII” value (F VIII; [14]) of the same substance?
Answer: 11%

Question: And the “F VIII” value (F VIII; [15])?
Answer: 58

Question: What about the “F VIII” value (F VIII; [16]) of the same substance?
Answer: 55

Question: What about the “F VIII” value (F VIII; [17]) of the same substance?
Answer: 56

Question: And the “F VIII” value (F VIII; [18])?
Answer: 55

Question: And the “F VIII” value (F VIII; [19])?
Answer: 31

Question: And the “F VIII” value (F VIII; [20])?
Answer: 13

Question: What about the “effect on Factor VIII” value (F VIII; human plasma) of the same substance?
Answer: mildly affected

Question: What about the “effect on Factor IX” value (F IX; 0.5 mg per ml, human plasma) of the same substance?
Answer: significant inhibitory effect

Question: What about the “V IX” value (F IX; Sodium bisulphite 0.01 mg/ml) of the same substance?
Answer: 60%

Question: What about the “V IX” value (F IX; Sodium bisulphite 0.05 mg/ml) of the same substance?
Answer: 52%

Question: What about the “V IX” value (F IX; Sodium bisulphite 0.1 mg/ml) of the same substance?
Answer: 56%

Question: What about the “V IX” value (F IX; Sodium bisulphite 0.5 mg/ml) of the same substance?
Answer: 4%

Question: And the “V IX” value (F IX; Sodium bisulphite 1.0 mg/ml)?
Answer: 3%

Question: What about the “V IX” value (F IX; Sodium bisulphite 5.0 mg/ml) of the same substance?
Answer: <1%

Question: What about the “F IX” value (F IX; [15]) of the same substance?
Answer: 49

Question: What about the “F IX” value (F IX; [16]) of the same substance?
Answer: 44

Question: What about the “F IX” value (F IX; [17]) of the same substance?
Answer: 40

Question: What about the “F IX” value (F IX; [18]) of the same substance?
Answer: 5

Question: What about the “F IX” value (F IX; [19]) of the same substance?
Answer: 1

Question: What about the “F IX” value (F IX; [20]) of the same substance?
Answer: <1

Question: What about the “effect on Factor X” value (F X; 0.5 mg per ml, human plasma) of the same substance?
Answer: significant inhibitory effect

Question: And the “F X” value (F X; [9])?
Answer: 73%

Question: And the “F X” value (F X; [10])?
Answer: 68%

Question: What about the “F X” value (F X; [11]) of the same substance?
Answer: 66%

Question: What about the “F X” value (F X; [12]) of the same substance?
Answer: 31%

Question: And the “F X” value (F X; [13])?
Answer: 11%

Question: What about the “F X” value (F X; [14]) of the same substance?
Answer: 3%

Question: What about the “F X” value (F X; [15]) of the same substance?
Answer: 80

Question: What about the “F X” value (F X; [16]) of the same substance?
Answer: 69

Question: What about the “F X” value (F X; [17]) of the same substance?
Answer: 66

Question: And the “F X” value (F X; [18])?
Answer: 22

Question: What about the “F X” value (F X; [19]) of the same substance?
Answer: 6

Question: What about the “F X” value (F X; [20]) of the same substance?
Answer: 4

Question: What about the “coagulation of human plasma” value (human plasma) of the same substance?
Answer: completely disrupted

Question: And the “radioactivity (radioactive fibrinogen) in damaged jugular vein, control rabbit relative to infused rabbit” value ([3]; continuous infusion 460 mg/kg per hr, 5 hours, control given sodium chloride solution)?
Answer: 7 times

Question: And the “death of other rabbits during infusion” value ([3]; other rabbits similarly evaluated, apparently overdosing)?
Answer: died before the experiment was completed

Question: And the “PT” value [4]?
Answer: 22.42 s

Question: What about the “PT” value ([4]; Table V, coded agents 0.5 mg/ml, Control 12.92) of the same substance?
Answer: 23.06 s

Question: And the “PTT” value [5]?
Answer: 114.80 s

Question: And the “inhibition of platelet aggregation induced by ADP” value (from here on “inhibition”) ([6]; 1 mM)?
Answer: 9%

Question: What about the “inhibition” value ([6]; 5 mM) of the same substance?
Answer: 66%

Question: And the “inhibition” value ([6]; 10 mM)?
Answer: 69%
